In PMC3878165 (Bioorganic & Medicinal Chemistry Letters, 2013):

Tests used:
PLpro = PLpro (Severe acute respiratory syndrome coronavirus, UniProt P0C6U8); assay: biochemical; set-up: species or system SARS-CoV
[1] = tested on: Eurofins lead-profiling screen; type: binding
melatonin MT1 receptor = melatonin MT1 receptor (Homo sapiens, UniProt P48039); type: binding
melatonin MT1 receptor, sequence (P48039 whole entry): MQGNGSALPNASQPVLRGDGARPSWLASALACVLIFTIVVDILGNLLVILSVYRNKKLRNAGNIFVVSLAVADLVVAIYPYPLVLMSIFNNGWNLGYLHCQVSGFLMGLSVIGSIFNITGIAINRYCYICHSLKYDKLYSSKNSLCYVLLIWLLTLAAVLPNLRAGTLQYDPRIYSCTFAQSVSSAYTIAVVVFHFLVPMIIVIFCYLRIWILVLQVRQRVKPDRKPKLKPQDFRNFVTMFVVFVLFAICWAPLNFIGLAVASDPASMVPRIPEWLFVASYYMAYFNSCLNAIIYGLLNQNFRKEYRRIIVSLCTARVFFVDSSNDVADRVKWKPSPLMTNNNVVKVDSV

CCC(C)(C)NC(=O)[C@@H](c1ccn(C)c1)N(C(=O)Cn1nnc2ccccc21)c1ccc(NC(C)=O)cc1 [compound 7]
IC50 (PLpro): > 60 µM

O=C(Nc1ccc(N(Cc2ccsc2)C(=O)Cn2nnc3ccccc32)cc1)C1CC1 [16e]
Eurofins Profiler Screen result in words [1]: highly selective
melatonin MT1 receptor activity in words (melatonin MT1 receptor): modest activity
